The experiment has as its target T1, F508delCFTR (Homo sapiens, UniProt P13569, DEL508-508).
T1 construct: expressed in transfected cells; host or cells: CFBE41o- human lung-derived epithelial cells (CFBE4lo-F508delCFTR-HRP), doxycycline-inducible
In words: Cell Surface Expression-Horse Radish Peroxidase (CSE-HRP) Assay.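 On Maximum % activity (with co-corrector): co-corrector and positive control are both the same reference corrector at 2 µM.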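 On Maximum % activity (without co-corrector): percent of the 2 µM on-plate positive control corrector response above DMSO.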 The conditions noted are these: for Emax / Maximum % activity (with co-corrector): maximum at any tested concentration, normalized to on-plate positive control; for Emax: read-out: Maximum % activity (without co-corrector). In kind it is cell-based.

Where [1] appears, read: test compound without co-corrector.
[2] abbreviates: test compound without co-corrector, read-out: EC50 (without co-corrector).
The mark [3] stands for this setting: with co-corrector (2 μM of 3-[(2R,4R)-4-({[1-(2,2-difluoro-1,3-benzodioxol-5-yl)cyclopropyl]carbonyl}amino)-7-methoxy-3,4-dihydro-2H-chromen-2-yl]benzoic acid).
Where [4] appears, read: with co-corrector (2 μM of 3-[(2R,4R)-4-({[1-(2,2-difluoro-1,3-benzodioxol-5-yl)cyclopropyl]carbonyl}amino)-7-methoxy-3,4-dihydro-2H-chromen-2-yl]benzoic acid), read-out: EC50 (with co-corrector).

Molecules are shown by their SMILES. Read-outs that look alike come from different tables or passages of the source.

T1 sequence (P13569 with tags, fused parts or gaps DEL508-508): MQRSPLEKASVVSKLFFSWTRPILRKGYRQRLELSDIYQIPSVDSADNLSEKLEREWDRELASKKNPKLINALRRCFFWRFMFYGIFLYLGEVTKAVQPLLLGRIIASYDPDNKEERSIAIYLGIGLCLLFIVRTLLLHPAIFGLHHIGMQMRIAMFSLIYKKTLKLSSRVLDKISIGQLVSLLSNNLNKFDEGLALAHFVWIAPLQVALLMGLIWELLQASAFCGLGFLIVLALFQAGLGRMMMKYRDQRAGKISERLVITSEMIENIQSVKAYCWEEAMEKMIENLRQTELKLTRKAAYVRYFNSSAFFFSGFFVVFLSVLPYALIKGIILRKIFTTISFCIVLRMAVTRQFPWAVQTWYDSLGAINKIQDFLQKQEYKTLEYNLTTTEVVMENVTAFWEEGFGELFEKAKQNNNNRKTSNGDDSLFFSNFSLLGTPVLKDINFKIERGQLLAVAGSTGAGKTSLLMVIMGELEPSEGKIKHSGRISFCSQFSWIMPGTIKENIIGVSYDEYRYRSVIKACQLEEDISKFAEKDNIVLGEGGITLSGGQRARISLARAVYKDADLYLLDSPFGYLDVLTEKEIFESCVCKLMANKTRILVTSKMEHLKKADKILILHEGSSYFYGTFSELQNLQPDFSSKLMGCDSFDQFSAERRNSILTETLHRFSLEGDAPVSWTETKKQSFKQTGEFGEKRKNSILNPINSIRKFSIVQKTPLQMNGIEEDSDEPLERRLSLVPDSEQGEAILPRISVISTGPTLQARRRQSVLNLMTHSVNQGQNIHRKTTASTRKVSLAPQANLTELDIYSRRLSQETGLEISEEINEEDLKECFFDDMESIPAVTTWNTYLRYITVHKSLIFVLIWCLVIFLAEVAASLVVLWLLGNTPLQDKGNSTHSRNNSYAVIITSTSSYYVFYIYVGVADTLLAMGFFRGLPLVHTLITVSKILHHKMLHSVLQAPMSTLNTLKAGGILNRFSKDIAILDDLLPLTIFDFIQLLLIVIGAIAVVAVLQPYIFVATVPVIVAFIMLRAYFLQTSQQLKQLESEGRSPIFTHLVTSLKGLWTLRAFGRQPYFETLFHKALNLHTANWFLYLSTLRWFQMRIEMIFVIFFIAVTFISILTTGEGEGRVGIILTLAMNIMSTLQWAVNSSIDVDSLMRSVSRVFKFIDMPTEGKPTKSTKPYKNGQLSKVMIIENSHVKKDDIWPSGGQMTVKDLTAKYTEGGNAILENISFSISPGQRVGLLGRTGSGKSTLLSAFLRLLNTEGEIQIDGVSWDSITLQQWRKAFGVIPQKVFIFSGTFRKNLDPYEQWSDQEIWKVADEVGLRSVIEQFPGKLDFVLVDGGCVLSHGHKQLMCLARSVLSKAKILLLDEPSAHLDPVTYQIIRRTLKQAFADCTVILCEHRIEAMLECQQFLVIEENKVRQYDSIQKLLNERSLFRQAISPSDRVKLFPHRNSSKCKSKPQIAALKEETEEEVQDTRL

For orientation: EC50 means the concentration at which the effect is half-maximal. `COc1ncc(C2(C)CC2(F)F)cc1CN[C@H]1[C@H](C(C)(C)C)[C@@H](C(=O)O)N(C(=O)C2CCCCC2)[C@H]1c1ccccc1` (stereo partly drawn) [II-422]: the Emax under setting [1] was in the range of 100 to 200%. Moreover, the EC50 was below 1 µM under setting [2] and below 1 µM under setting [4]. For the same molecule, the “Maximum % activity (with co-corrector)” value under setting [3] is reported as “+++ (≥350)”.
In the case of `COc1ncc(-c2ccccc2)cc1CN[C@H]1[C@H](C(C)(C)C)[C@@H](C(=O)O)N(C(=O)C2CCCCC2)[C@H]1c1ccccc1F` [II-423], the Emax under setting [1] lay in the range of 100 to 200%. Also, the EC50 runs as follows: under setting [2], below 1 µM; under setting [4], below 1 µM. Under setting [3], the “Maximum % activity (with co-corrector)” value is listed as “+++ (≥350)”.
Consider `COc1ncc(-c2ccccc2F)cc1CN[C@H]1[C@H](C(C)(C)C)[C@@H](C(=O)O)N(C(=O)C2CCCCC2)[C@H]1c1ccccc1F` [II-424], for which the Emax under setting [1] fell in the range of 100 to 200%. The EC50 was below 1 µM under setting [2] and below 1 µM under setting [4]. Moreover, under setting [3], the “Maximum % activity (with co-corrector)” value was “+++ (≥350)”.
Take `COc1ncc(C(F)(F)F)cc1CN[C@H]1[C@H](C(C)(C)C)[C@@H](C(=O)O)N(C(=O)OC(C)C)[C@H]1c1ccccc1` [II-425]: the Emax under setting [1] is above 200%. Moreover, the EC50 is, setting by setting: under setting [2], 1 to 10 µM; under setting [4], 1 to 10 µM. For the same molecule, under setting [3], the “Maximum % activity (with co-corrector)” value is listed as “+++ (≥350)”.
Consider `COc1nc(C(C)(C)C)ccc1CN[C@H]1[C@H](C(C)(C)C)[C@@H](C(=O)O)N(C(=O)Cc2ccccc2C)[C@H]1c1ccccc1C(C)C` [II-427], for which, under setting [1], the Emax was above 200%. Further, the EC50 is, setting by setting: under setting [2], below 1 µM; under setting [4], below 1 µM. Besides, the “Maximum % activity (with co-corrector)” value under setting [3] was “+++ (≥350)”.
Turning to `COc1nc(C(C)(C)C)ccc1CN[C@H]1[C@H](C(C)(C)C)[C@@H](C(=O)O)N(C(=O)C2CCC(C)(C)C2)[C@H]1c1ccccc1` (stereo partly drawn) [II-428], the Emax under setting [1] fell in the range of 100 to 200%. The EC50 by setting is: under setting [2], 1 to 10 µM; under setting [4], 1 to 10 µM. For the same molecule, the “Maximum % activity (with co-corrector)” value under setting [3] is “+++ (≥350)”.
With `COc1nc(C(C)(C)C)ccc1CN[C@H]1[C@H](C(C)(C)C)[C@@H](C(=O)O)N(C(=O)Cc2ccccc2C)[C@H]1c1ccccc1` [II-429], the Emax under setting [1] lay in the range of 100 to 200%. The EC50 by setting is: under setting [2], below 1 µM; under setting [4], below 1 µM. Further, the “Maximum % activity (with co-corrector)” value under setting [3] was “+++ (≥350)”.
In the case of `COc1nc(C(C)(C)C)ccc1CN[C@H]1[C@H](C(C)(C)C)[C@@H](C(=O)O)N(C(=O)[C@H](OC)c2ccccc2)[C@H]1c1ccccc1` [II-433], under setting [1], the Emax was in the range of 100 to 200%. The EC50 is below 1 µM under setting [2] and below 1 µM under setting [4]. The “Maximum % activity (with co-corrector)” value under setting [3] is reported as “+++ (≥350)”.
Consider `COc1ncc(C(F)(F)F)cc1CN[C@H]1[C@H](C(C)(C)C)[C@@H](C(=O)O)N(C(=O)C2CCC(C)(C)O2)[C@H]1c1ccccc1` (stereo partly drawn) [II-434], for which the Emax under setting [1] fell in the range of 100 to 200%. Also, the 50% effective concentration (EC50) runs as follows: under setting [2], 1 to 10 µM; under setting [4], 1 to 10 µM. The “Maximum % activity (with co-corrector)” value under setting [3] is “+++ (≥350)”.
For the molecule `COc1ncc(C(F)(F)F)cc1CN[C@H]1[C@H](C(C)(C)C)[C@@H](C(=O)O)N(C(=O)C2CCc3ccc(F)cc3O2)[C@H]1c1ccccc1` (stereo partly drawn) [II-435], the Emax under setting [1] was below 100%. The EC50 is 1 to 10 µM under setting [2] and 1 to 10 µM under setting [4]. For the same molecule, under setting [3], the “Maximum % activity (with co-corrector)” value is “++ (≥150 and <350)”.
For the molecule `COc1ccc(C(F)(F)F)cc1CN[C@H]1[C@H](C(C)(C)OC)[C@@H](C(=O)O)N(C(=O)C2CCCCC2)[C@H]1c1cccnc1OC` [II-436], the Emax under setting [1] lay in the range of 100 to 200%. The EC50 runs as follows: under setting [2], 1 to 10 µM; under setting [4], 1 to 10 µM. In addition, the “Maximum % activity (with co-corrector)” value under setting [3] is given as “+++ (≥350)”.
In the case of `COc1ccc(C(F)(F)F)cc1CN[C@H]1[C@H](C(C)(C)OC)[C@@H](C(=O)O)N(C(=O)C2CCCCC2)[C@H]1c1cccnc1N(C)C` [II-437], the Emax under setting [1] is above 200%. For the same molecule, the EC50 lay within 1 to 10 µM under setting [2] and 1 to 10 µM under setting [4]. Moreover, the “Maximum % activity (with co-corrector)” value under setting [3] is reported as “+++ (≥350)”.
For `C/C=C/CC(C/C=C/C)C(=O)N1[C@H](C(=O)O)[C@@H](C(C)(C)C)[C@H](NCc2cc(C(C)(C)C)ccc2OC)[C@@H]1c1ccccc1` [II-439], the Emax under setting [1] was above 200%. Besides, the EC50 was 1 to 10 µM under setting [2] and below 1 µM under setting [4]. Besides, under setting [3], the “Maximum % activity (with co-corrector)” value was “+++ (≥350)”.
On the same counts, the results for `COc1ncc(C2(C)CC2)cc1CN[C@H]1[C@H](C(C)(C)C)[C@@H](C(=O)O)N(C(=O)C2CCCCC2)[C@H]1c1ccccc1` [II-440] are 100 to 200%, 1 to 10 µM, 1 to 10 µM and “+++ (≥350)”.
For `COc1ccc([Si](C)(C)C)cc1CN[C@H]1[C@H](C(C)(C)C)[C@@H](C(=O)O)N(C(=O)[C@H]2CCCC(F)(F)C2)[C@H]1c1ccccc1` [II-441], the EC50 under setting [2] was below 1 µM and the EC50 under setting [4] is below 1 µM.
In the case of `COc1ccc(C(C)(C)C)cc1CN[C@H]1[C@H](C(C)(C)C)[C@@H](C(=O)O)N(C(=O)C2CC23CCOCC3)[C@H]1c1ccccc1` (stereo partly drawn) [II-442], under setting [1], the Emax was below 100%. The EC50 runs as follows: under setting [2], 1 to 10 µM; under setting [4], 1 to 10 µM. Besides, the “Maximum % activity (with co-corrector)” value under setting [3] is “+++ (≥350)”.
`COc1ccc(C(C)(C)C)cc1CN[C@H]1[C@H](C(C)(C)C)[C@@H](C(=O)O)N(C(=O)C2CCO2)[C@H]1c1ccccc1` (stereo partly drawn) [II-443]: under setting [1], the Emax was above 200%. In addition, the EC50 runs as follows: under setting [2], 1 to 10 µM; under setting [4], 1 to 10 µM. The “Maximum % activity (with co-corrector)” value under setting [3] is recorded as “+++ (≥350)”.
In the case of `COc1ccc(C(C)(C)C)cc1CN[C@H]1[C@H](C(C)(C)C)[C@@H](C(=O)O)N(C(=O)c2cc(C)n(C)n2)[C@H]1c1ccccc1` [II-445], under setting [1], the Emax fell in the range of 100 to 200%. Besides, the EC50 under setting [2] fell in the range of 1 to 10 µM and the EC50 under setting [4] is 1 to 10 µM. For the same molecule, under setting [3], the “Maximum % activity (with co-corrector)” value is reported as “+++ (≥350)”.
Consider `COc1ncc(C(F)(F)F)cc1CN[C@H]1[C@H](C(C)(C)C)[C@@H](C(=O)O)N(C(=O)C2Cc3cccc(C)c3O2)[C@H]1c1ccccc1` (stereo partly drawn) [II-446], for which the Emax under setting [1] was below 100%. Besides, the EC50 was 1 to 10 µM under setting [2] and 1 to 10 µM under setting [4]. Moreover, the “Maximum % activity (with co-corrector)” value under setting [3] is “++ (≥150 and <350)”.
`COc1ccc(-c2ccccc2)cc1CN[C@H]1[C@H](C(C)(C)C)[C@@H](C(=O)O)N(C(=O)[C@H]2CCCCO2)[C@H]1c1cccnc1N(C)C` [II-447]: under setting [1], the Emax fell in the range of 100 to 200%. In addition, the EC50 under setting [2] was in the range of 1 to 10 µM and the EC50 under setting [4] lay in the range of 1 to 10 µM. Moreover, under setting [3], the “Maximum % activity (with co-corrector)” value is “+++ (≥350)”.
Turning to `COc1ccc(-c2ccccc2)cc1CN[C@H]1[C@H](C(C)(C)C)[C@@H](C(=O)O)N(C(=O)[C@@H]2CCCCO2)[C@H]1c1cccnc1N(C)C` [II-450], the Emax under setting [1] is above 200%. The EC50 is, setting by setting: under setting [2], 1 to 10 µM; under setting [4], below 1 µM. In addition, the “Maximum % activity (with co-corrector)” value under setting [3] is “+++ (≥350)”.
Taken in the same sequence, the figures for `COc1ccc(C(C)(C)C)cc1CN[C@H]1[C@H](C(C)(C)C)[C@@H](C(=O)O)N(C(=O)[C@H]2CCCCO2)[C@H]1c1ccccc1` [II-451] were above 200%, 1 to 10 µM, 1 to 10 µM and “+++ (≥350)”.
Taken in the same sequence, the figures for `COc1ccc(C(C)(C)C)cc1CN[C@H]1[C@H](C(C)(C)C)[C@@H](C(=O)O)N(C(=O)C(C)C2CCCCO2)[C@H]1c1ccccc1` (stereo partly drawn) [II-457] were above 200%, 1 to 10 µM, 1 to 10 µM and “+++ (≥350)”.

These data come from patent US20180099931A1 (AbbVie S.à.r.l., priority 2016, published 2018).
